Calls of active or inactive are those of the source.
How the values were obtained:
[1] = molecular target: Hepatocyte nuclear factor 4-alpha (Homo sapiens, UniProt P41235); type: functional, cell-based;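 further: biochemical luminescence-based dose-response counterscreen measuring inhibition of HNF4 dimerization, run alongside a screen for blockers of ABHD5–perilipin-5 interaction; split luciferase complementation of HNF4 fusion proteins in cell lysate measuring dimerization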
[2] = molecular target: Cytochrome P450 2C9 (Homo sapiens, UniProt P11712)
[3] = molecular target: Cytochrome P450 2D6 (Homo sapiens, UniProt P10635);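 further: CYP2D6 member of a cytochrome P450 panel assay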
[4] = molecular target: Cytochrome P450 3A4 (Homo sapiens, UniProt P08684);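 further: CYP3A4 tested as one member of a cytochrome P450 panel screen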
[5] = molecular target: T1, Protein skinhead-1 (Caenorhabditis elegans, UniProt P34707); type: functional
T1 sequence (P34707 whole entry): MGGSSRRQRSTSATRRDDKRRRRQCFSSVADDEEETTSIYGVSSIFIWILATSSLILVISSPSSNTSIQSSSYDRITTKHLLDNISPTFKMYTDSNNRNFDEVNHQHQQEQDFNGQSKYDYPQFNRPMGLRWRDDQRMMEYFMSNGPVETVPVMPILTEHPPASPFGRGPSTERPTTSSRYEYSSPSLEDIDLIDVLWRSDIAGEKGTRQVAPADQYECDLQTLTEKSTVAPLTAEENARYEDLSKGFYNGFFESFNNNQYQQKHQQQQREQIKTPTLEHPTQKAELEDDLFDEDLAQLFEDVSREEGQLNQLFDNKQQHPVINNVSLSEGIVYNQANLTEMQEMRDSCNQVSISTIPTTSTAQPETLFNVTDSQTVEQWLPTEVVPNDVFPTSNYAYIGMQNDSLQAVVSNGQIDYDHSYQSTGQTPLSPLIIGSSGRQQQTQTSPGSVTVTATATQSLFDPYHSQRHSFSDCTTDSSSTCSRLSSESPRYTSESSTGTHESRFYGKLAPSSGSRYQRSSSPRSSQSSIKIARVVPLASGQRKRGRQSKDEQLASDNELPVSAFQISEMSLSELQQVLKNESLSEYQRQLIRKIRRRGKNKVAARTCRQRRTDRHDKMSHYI

[6] = test system: HeLa; assay: HeLa cell cytotoxicity, dose response, cytotoxicity control for MITF activator project, CellTiter-Glo luminescence, cherry-pick samples (AID 540259); type: functional, cell-based; details: Homo sapiens
[7] = inhibitors of intracellular T. cruzi replication, confirmation, NIH3T3 host cells, beta-gal luminescence (AID 2044); type: functional, cell-based;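 further: intracellular parasites grown in NIH/3T3 mouse fibroblasts as host cells; luminescent beta-galactosidase reporter signal from transgenic T. cruzi replicating inside host cells; inhibitors lower the luminescence signal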
[8] = cytotoxicity in MIN6 insulinoma cells, dose response, cytotoxicity control, cell-based, mouse insulinoma (AID 2122); type: functional;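 further: confirmatory high-throughput counterscreen run to flag cytotoxic compounds; mouse MIN-6 beta cells carrying an insulin promoter eGFP reporter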
[9] = insulin promoter down-regulators in MIN6 cells, imaging, high-content screening, mouse beta cells (AID 1628); type: functional
[10] = cytotoxicity toward NIH3T3 fibroblasts, dose response, counter-screen, cell-based, ATP luminescence, mouse fibroblasts (AID 2010); type: functional;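 further: cells exposed to compound for about 90 hours before reading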
[11] = molecular target: Beta-lactamase (Salmonella choleraesuis (strain SC-B67), UniProt Q5J463)
[12] = molecular target: Beta-lactamase (Pseudomonas aeruginosa, UniProt Q79MP6);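 further: biochemical dose-response test of metallo-beta-lactamase enzyme inhibition, read out by epi-absorbance; purified recombinant IMP-1 metallo-beta-lactamase with nitrocefin as substrate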
[13] = growth suppression of beta-catenin-knockout colon cells, dose response, cell-based, HCT116, human colon tumor (AID 1045); type: functional;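 further: HCT116 colon tumor cells with beta catenin knocked out; cells exposed to compound for 60 hours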
[14] = growth suppression of PTEN-null colon cells, dose response, cell-based, HCT116 PTEN knockout (AID 1047); type: functional;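 further: HCT116 colon tumor cells with PTEN knocked out; cells exposed to compound for 60 hours before readout; potency for loss of cell viability measured by luminescence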
[15] = ARNT/TACC3 interaction disruptors, potency, confirmation, biochemical, AlphaScreen, cherry-picked samples (AID 651703); type: functional, Homo sapiens;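 further: His-tagged ARNT PAS-B domain paired with GST-TACC3 E629A dimer coactivator fragment; potency of inhibitors that break up the complex and lower AlphaScreen signal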
[16] = molecular target: DNA repair and recombination protein RAD54-like (Homo sapiens, UniProt Q92698); assay: inhibitors of human RAD54 branch migration, confirmation, biochemical, fluorescence, cherry-picked samples, dose series (AID 651657); type: functional
[17] = molecular target: T2, DNA repair protein RAD52 homolog (Homo sapiens, UniProt P43351); type: functional, biochemical
T2 sequence (P43351 whole entry): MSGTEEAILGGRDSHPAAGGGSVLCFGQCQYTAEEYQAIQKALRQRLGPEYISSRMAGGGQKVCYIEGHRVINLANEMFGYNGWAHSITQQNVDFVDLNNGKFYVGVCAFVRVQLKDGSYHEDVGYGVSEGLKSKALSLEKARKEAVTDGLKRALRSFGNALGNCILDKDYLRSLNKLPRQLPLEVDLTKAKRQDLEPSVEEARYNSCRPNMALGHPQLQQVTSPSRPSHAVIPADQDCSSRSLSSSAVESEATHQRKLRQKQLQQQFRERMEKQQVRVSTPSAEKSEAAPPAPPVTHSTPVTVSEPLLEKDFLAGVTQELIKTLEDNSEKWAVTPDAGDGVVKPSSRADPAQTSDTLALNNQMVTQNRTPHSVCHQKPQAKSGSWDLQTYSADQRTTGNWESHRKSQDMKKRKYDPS

[18] = molecular target: T3, Corticotropin-releasing factor receptor 2/Corticotropin-releasing factor-binding protein (Homo sapiens, UniProt P24387+Q13324); assay: activators of CRF receptor 2 with binding protein – uHTS hits, confirmation (AID 602473); type: functional; details: read-out: EC50_Mean
T3 sequence (Q13324 whole entry): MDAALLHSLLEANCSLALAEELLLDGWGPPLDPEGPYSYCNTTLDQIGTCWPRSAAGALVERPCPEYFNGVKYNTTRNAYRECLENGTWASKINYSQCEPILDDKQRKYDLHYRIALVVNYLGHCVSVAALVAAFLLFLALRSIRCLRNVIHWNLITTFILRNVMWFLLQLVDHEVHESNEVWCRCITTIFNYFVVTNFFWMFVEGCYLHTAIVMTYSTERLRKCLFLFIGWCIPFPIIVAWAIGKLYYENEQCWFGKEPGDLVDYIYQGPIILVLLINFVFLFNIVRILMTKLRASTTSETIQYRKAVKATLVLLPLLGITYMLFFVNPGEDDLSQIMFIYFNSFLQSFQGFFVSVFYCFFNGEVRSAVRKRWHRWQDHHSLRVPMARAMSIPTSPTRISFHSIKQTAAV
T3 sequence (P24387 whole entry): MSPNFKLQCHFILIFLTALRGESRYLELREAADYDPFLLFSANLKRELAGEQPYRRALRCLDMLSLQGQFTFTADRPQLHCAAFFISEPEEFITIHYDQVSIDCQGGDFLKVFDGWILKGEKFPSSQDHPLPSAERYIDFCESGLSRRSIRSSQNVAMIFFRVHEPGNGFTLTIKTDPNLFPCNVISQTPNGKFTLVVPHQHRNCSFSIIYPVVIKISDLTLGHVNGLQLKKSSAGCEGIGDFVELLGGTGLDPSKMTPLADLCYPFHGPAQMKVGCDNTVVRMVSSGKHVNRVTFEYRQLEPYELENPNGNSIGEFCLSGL

[19] = molecular target: T3, Corticotropin-releasing factor receptor 2/Corticotropin-releasing factor-binding protein; assay: Dose Response confirmation of uHTS hits for small molecule antagonists of the CRF-binding protein and CRF-R2 receptor complex.; type: functional; details: read-out: IC50_Mean
[20] = CRF-BP/CRF-R2 complex antagonists, dose response, cell-based, uHTS hits, 384-well (AID 651639); type: functional, Homo sapiens; details: read-out: IC50_Mean
[21] = HeLa cell cytotoxicity, dose response, cytotoxicity control for MgcRacGAP inhibitor project (AID 624300); type: functional
[22] = molecular target: T4, Rac GTPase-activating protein 1 (Homo sapiens, UniProt Q9H0H5); assay: MgcRacGAP GTPase-activating activity inhibitors, confirmation, biochemical, ADP Hunter fluorescence, primary and confirmatory (AID 624330); type: functional
T4 sequence (Q9H0H5 whole entry): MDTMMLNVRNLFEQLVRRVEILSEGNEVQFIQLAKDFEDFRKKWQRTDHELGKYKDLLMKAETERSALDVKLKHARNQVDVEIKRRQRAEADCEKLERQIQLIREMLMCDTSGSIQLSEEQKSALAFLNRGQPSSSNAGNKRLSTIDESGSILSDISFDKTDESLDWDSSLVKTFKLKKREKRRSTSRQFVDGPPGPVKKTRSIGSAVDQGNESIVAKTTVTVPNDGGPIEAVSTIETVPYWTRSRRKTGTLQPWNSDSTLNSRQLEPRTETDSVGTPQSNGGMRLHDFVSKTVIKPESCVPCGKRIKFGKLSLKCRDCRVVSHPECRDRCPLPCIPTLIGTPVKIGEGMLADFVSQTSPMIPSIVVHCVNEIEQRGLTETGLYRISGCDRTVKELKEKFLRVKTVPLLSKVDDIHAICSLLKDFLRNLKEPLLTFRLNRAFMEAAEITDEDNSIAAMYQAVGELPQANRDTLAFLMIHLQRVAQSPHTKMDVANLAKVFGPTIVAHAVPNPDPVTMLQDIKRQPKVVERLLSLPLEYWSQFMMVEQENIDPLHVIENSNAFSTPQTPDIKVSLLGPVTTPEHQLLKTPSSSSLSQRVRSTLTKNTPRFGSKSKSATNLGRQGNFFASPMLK

DNA repair and recombination protein RAD54-like, sequence (Q92698 whole entry): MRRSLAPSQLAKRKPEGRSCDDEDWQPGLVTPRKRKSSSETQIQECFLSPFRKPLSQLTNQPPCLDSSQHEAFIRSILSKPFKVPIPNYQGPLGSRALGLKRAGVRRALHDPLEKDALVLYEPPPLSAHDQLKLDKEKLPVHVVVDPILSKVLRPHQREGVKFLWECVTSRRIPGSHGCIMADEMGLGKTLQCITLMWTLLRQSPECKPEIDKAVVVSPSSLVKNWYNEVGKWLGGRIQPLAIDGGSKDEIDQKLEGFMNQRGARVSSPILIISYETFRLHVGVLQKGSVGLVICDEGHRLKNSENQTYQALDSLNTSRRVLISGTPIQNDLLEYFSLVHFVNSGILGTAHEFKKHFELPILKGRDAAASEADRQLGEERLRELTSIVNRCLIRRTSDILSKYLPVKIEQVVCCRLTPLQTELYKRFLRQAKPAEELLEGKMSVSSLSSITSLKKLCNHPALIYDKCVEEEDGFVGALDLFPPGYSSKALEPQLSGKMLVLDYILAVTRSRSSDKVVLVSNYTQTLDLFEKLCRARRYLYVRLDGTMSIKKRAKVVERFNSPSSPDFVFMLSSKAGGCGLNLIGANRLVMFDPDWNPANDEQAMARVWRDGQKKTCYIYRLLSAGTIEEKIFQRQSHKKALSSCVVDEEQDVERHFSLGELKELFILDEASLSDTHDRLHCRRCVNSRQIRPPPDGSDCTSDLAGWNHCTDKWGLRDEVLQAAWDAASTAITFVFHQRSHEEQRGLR
Cytochrome P450 2D6, sequence (P10635 whole entry): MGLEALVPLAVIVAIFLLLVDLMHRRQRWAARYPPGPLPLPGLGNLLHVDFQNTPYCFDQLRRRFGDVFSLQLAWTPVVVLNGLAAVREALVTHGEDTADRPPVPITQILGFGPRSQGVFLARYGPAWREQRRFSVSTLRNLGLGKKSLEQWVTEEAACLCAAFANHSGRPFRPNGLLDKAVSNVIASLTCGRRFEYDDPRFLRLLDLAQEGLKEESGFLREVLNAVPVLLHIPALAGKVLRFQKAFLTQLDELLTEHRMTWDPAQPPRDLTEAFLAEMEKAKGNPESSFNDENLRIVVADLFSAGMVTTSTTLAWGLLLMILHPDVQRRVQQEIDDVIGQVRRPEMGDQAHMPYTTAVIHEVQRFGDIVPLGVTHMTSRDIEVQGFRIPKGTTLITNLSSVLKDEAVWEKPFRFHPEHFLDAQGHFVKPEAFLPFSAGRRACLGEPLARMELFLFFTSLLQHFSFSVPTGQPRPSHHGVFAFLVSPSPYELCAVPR
Cytochrome P450 3A4, sequence (P08684 whole entry): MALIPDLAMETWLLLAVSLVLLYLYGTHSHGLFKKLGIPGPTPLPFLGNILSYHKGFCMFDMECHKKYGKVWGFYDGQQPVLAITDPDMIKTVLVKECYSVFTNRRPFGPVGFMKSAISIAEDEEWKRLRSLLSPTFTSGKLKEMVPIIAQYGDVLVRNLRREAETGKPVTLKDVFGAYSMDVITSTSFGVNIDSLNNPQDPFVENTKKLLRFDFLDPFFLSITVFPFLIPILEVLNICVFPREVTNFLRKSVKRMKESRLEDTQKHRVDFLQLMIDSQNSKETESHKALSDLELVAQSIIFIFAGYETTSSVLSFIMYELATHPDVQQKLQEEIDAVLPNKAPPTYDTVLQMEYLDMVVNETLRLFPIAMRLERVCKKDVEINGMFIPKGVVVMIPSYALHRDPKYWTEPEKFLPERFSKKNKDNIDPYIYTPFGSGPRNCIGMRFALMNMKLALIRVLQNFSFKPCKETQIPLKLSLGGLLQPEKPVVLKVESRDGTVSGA
Beta-lactamase (Pseudomonas aeruginosa, UniProt Q79MP6), sequence (Q79MP6 whole entry): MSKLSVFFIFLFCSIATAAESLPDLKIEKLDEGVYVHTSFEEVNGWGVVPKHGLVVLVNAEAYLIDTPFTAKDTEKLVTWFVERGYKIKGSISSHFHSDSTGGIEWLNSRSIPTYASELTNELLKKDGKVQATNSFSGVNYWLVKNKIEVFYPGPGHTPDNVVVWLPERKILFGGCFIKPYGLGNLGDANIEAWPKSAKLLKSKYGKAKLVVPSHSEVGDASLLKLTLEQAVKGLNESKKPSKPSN
Beta-lactamase (Salmonella choleraesuis (strain SC-B67), UniProt Q5J463), sequence (Q5J463 whole entry): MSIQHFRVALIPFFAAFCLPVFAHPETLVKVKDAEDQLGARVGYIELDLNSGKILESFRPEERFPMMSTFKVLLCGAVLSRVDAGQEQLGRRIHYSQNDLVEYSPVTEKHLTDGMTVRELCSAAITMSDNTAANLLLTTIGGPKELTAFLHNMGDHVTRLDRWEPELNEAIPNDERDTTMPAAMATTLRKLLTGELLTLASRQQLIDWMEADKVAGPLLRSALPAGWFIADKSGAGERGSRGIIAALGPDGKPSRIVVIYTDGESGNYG
Hepatocyte nuclear factor 4-alpha, sequence (P41235 whole entry, the tested form may be a part): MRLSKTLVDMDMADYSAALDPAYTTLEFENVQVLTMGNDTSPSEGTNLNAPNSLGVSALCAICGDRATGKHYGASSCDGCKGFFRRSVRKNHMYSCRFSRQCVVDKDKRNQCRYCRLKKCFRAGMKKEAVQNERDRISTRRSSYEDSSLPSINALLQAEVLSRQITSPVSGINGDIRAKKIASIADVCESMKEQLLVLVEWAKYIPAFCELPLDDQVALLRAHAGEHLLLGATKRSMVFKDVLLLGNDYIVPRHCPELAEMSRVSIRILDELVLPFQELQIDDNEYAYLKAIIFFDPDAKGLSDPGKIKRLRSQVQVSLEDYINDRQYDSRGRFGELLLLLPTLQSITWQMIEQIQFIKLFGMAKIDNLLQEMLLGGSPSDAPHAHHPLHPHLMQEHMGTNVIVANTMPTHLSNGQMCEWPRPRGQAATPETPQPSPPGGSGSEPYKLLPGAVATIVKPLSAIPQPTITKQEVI
Cytochrome P450 2C9, sequence (P11712 whole entry): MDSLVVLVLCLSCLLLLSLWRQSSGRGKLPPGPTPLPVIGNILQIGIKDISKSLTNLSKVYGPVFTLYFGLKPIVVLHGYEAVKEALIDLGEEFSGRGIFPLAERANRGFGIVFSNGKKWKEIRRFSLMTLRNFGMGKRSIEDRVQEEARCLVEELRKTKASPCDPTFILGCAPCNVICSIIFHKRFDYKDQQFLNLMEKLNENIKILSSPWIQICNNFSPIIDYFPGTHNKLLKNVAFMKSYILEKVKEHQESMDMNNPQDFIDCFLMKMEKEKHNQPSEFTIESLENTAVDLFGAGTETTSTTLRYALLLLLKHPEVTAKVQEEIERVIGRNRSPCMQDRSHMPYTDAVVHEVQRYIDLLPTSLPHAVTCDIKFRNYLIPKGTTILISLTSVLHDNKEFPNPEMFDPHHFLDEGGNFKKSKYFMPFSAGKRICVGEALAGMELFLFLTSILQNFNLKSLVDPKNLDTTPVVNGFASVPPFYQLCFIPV

In the case of CCCc1nc(C)c2c(=O)[nH]c(-c3cc(S(=O)(=O)N4CCN(CC)CC4)ccc3OCC)nn12, the IC50 [1] is reported as 25.1 µM (inactive).

With CCOC(=O)NCc1ccc2c(c1)cc(C)n2C the AC50 [2] was “inconclusive”, the AC50 [3] was “inconclusive” and the AC50 [4] was 14.1 µM (inconclusive). The IC50 [5] was > 100 µM (inactive).

For Cc1nc(NC(C)C)c2cnn(CCc3ccccc3)c2n1, the AC50 [6] was 84.6 µM (active).

For CCC(C)C(=O)Nc1nc(C)c(-c2csc(Nc3ccc(Cl)cc3)n2)s1 (stereo not given), the EC50 [7] was 1.75 µM (active), the IC50 [8] was 3.05 µM (active) and the IC50 [9] was 2.48 µM (active). The EC50 [10] was > 60 µM (not active).

With COc1ccc2c(Cl)c(C(=O)NCCCn3ccnc3)sc2c1Cl the IC50 [11] was > 59.6 µM (inactive) and the IC50 [12] was > 59.6 µM (inactive).

In the case of CCC(C)NCC(=O)Nc1ccc(-c2nc3cc(NC(=O)CNC(C)CC)ccc3o2)cc1 (stereo not given), the IC50 [8] is reported as 1.66 µM (active), the EC50 [13] is reported as 2.98 µM (active) and the IC50 [9] is reported as 2.17 µM (active). The EC50 [14] was 4.19 µM (active).

In the case of CCCCNC(=O)CCC(=O)N1CCN(C(c2ccccc2)c2ccccc2)CC1, the AC50 [15] is reported as 81 µM (active).

In the case of COc1ccc(-c2cc3nc(NCCCN(C)C)n(C)c(=O)c3s2)cc1OC, the AC50 [16] is reported as 11.5 µM (active) and the AC50 [17] is reported as 4.79 µM (active).

With CCOC(=O)C(NC(=O)CC(C)C)(Nc1sc(C)c(CC)c1C#N)C(F)(F)F (stereo not given) the EC50 [18] was > 53 µM (inactive), the IC50 [19] was 13.6 µM (active) and the IC50 [20] was > 20 µM (inactive).

For COc1ccc(C(CNC(=O)c2cc3ccccc3cc2O)N2CCOCC2)cc1 (stereo not given), the CC50 [21] was 100 µM (active) and the IC50 [22] was 77 µM (active).

With O=C(Nc1cccc(Br)c1)c1cc(S(=O)(=O)N2CCOCC2)cs1 the AC50 [16] was 72.5 µM (active).
